From US10689377B2 (Mirati Therapeutics, Inc., priority 2017, dated 2020) come the findings set out here.

Data set [1] is described as follows: In vitro stability in human whole blood. The note with it: male, whole blood diluted to 50% with PBS, pH 7.4, human whole blood diluted to 50% with PBS, 5 μM, 37° C., 240-minute incubation, read-out: Compound Half-life. The data set is classed as in vitro ADME. An excerpt: Materials: The following reagents were used as received: acetonitrile (HPLC grade, Burdick & Jackson, Madison, Wis.), phosphate buffered saline (PBS), pH 7.4 (Sigma-Aldrich, Co., St. Louis, Mo.), water (HPLC grade, JT Baker, Phillipsburg, N.J.), DMSO (EM Science, Merck KGaA, Darmstadt, Germany) and isopropanol (IPA, reagent grade, EMD Chemicals, Gibbstown, N.J.). Propantheline and esmolol (Sigma-Aldrich) were used as the positive control compounds in the assay. Diazepam (Sigma-Aldrich) was used as an internal standard for quantitation. Human whole blood was obtained from BioIVT (Westbury, N.Y.) […]. All other reagents and solvents were of the highest analytical grade supplied by Sigma (St. Louis, Mo.) and were used as received.
Blood Incubations: The in vitro stability of representative KRas G12C inhibitor compounds of the present invention in the presence whole blood was conducted in the following manner. Esmolol or propantheline, which are known to undergo ester hydrolysis by esterases in blood and plasma, were used as the positive controls in the assays. A 10 mM stock solution of propantheline, esmolol, or a compound of the present invention in DMSO was diluted to 500 μM with DMSO. Aliquots of whole blood (600 μL), in triplicate, were placed in the appropriate wells of a polypropylene 96-deep well plate (Axygen Scientific, Union City, Calif.). The blood was diluted to 50% using PBS, pH 7.4 (600 μL). The diluted blood was pre-incubated for 15 minutes at 37° C. Each well was dosed with 12 μL of the 500 μM DMSO stock simultaneously for a final test concentration of 5 μM. The plates were mixed at 600 rpm for 10 seconds on a plate shaker (IKA MTS 2/4 Digital Microtiter Shaker, VWR). Aliquots of 100 μL from each well of whole blood were transferred to three separate 96-deep well plates labeled 0, 60, or 240 minutes. At the end of each designated time point, the red blood cells were lysed with 100 μL of water, mixed at 600 rpm for one minute, and stopped with 800 μL of acetonitrile containing IS (0.625 μM diazepam). The plates were mixed on the plate shaker at 600 rpm for one minute and spun in a centrifuge at 2095×g for 7 minutes at room temperature using an Allegra benchtop centrifuge (Beckman Coulter, Fullerton, Calif.). Supernatant (100 μL) was transferred to a shallow 96-well plate (Costar) using a liquid sample handling system (Apricot, Perkin-Elmer, Boston, Mass.). The addition of 100 μL of water was added to each sample of supernatant for a final volume of 200 μL. The plates were sealed and the contents of each well were analyzed by LC-MS/MS.
Analytical quantitation: The LC-MS/MS system was comprised of an HTS-PAL autosampler (Leap Technologies, Carrboro, N.C.), an HP1200 HPLC (Agilent, Palo Alto, Calif.), and an API4000 triple quadrupole mass spectrometer (PE Sciex, a division of Applied Biosystems, Foster City, Calif.). […] The total run time, including re-equilibration, for a single injection was 2 minutes. Mass spectrometric detection of the analytes was accomplished using the ESI ionization mode. Ion current was optimized during infusion of a stock solution of propantheline, esmolol, or the representative test compound. Analyte responses, including the IS were measured by multiple reaction monitoring (MRM) of transitions unique to each compound.
Calculations: Data were acquired and peak areas were calculated for test compounds and the internal standard using Analyst 1.6.2 software (Sciex). The mean peak area ratios were calculated by averaging the peak area ratios (n=3) of each test compound and the IS for each sample.
Peak area tables were exported to BioAssay Enterprise (CambridgeSoft, Cambridge, Mass.), where the average analyte-to-internal standard peak area ratios were used to calculate percent remaining (% REM) and half-life (t1/2). Percent remaining (f) was calculated by determining the ratio of the peak area ratio at each time point to the peak area ratio of the time-zero samples. […]

Data set [2] deals with KRas G12C (Homo sapiens, UniProt P01116, G12C). In words: Cellular inhibition of KRas G12C measured by Phospho-ERK in NCI-H358 cells. It is filed as cell-based. The note with it: pERK(Thr202/Tyr204) normalized with GAPDH, NCI-H358 cells, 3 hours; read-out: IC50. The essentials: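 Ratio of phospho-ERK(Thr202/Tyr204) to GAPDH, read by near-infrared secondary antibodies on fixed, permeabilised NCI-H358 cells, expressed relative to DMSO control. Compound exposure was 3 h at 0.5% DMSO. IC50 values come from 4-parameter curve fits.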
Sequence of KRas G12C (P01116 1-188 isoform P01116-2 G12C): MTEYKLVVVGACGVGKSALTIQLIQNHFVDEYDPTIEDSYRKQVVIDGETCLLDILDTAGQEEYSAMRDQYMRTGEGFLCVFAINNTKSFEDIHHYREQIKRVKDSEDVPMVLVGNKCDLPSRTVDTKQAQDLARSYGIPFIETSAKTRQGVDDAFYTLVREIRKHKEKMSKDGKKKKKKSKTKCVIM

By half-life is commonly meant the time in which the quantity being followed falls by half. As usually defined, the IC50 is the midpoint of a concentration-inhibition curve. Consider `Cc1cccc2cccc(N3CCc4c(nc(OC[C@@H]5CCCN5C)nc4N4CCN(C(=O)/C=C\C#N)[C@@H](CC#N)C4)C3)c12` [Example 502, (Z)-4-((S)-2-(cyanomethyl)-4-(7-(8-methylnaphthalen-1-yl)-2-(((S)-1-methylpyrrolidin-2-yl)methoxy)-5,6,7,8-tetrahydropyrido[3,4-d]pyrimidin-4-yl)piperazin-1-yl)-4-oxobut-2-enenitrile], for which the half-life at 5 µM in data set [1] lay within 3.33 to 16.7 h. Besides, the IC50 in data set [2] lay within 0.1 to 1000 nM.

Take `Cc1cccc2cccc(N3CCc4c(nc(OC[C@@H]5CCCN5C)nc4N4CCN(C(=O)/C=C/CF)[C@@H](CC#N)C4)C3)c12` [Example 506, 2-((S)-1-((E)-4-fluorobut-2-enoyl)-4-(7-(8-methylnaphthalen-1-yl)-2-(((S)-1-methylpyrrolidin-2-yl)methoxy)-5,6,7,8-tetrahydropyrido[3,4-d]pyrimidin-4-yl)piperazin-2-yl)acetonitrile]: the half-life at 5 µM in data set [1] is 16.7 to 33.3 h. For the same compound, the IC50 in data set [2] lay within 0.1 to 1000 nM.

On to `Cc1cccc2cccc(N3CCc4c(nc(OC[C@@H]5CCCN5C)nc4N4CCN(C(=O)/C=C/C(F)(F)F)[C@@H](CC#N)C4)C3)c12` [Example 491, 2-((S)-4-(7-(8-methylnaphthalen-1-yl)-2-(((S)-1-methylpyrrolidin-2-yl)methoxy)-5,6,7,8-tetrahydropyrido[3,4-d]pyrimidin-4-yl)-1-((E)-4,4,4-trifluorobut-2-enoyl)piperazin-2-yl)acetonitrile], for which, in data set [1], the half-life at 5 µM is at most 3.33 h. Moreover, the IC50 in data set [2] was 0.1 to 1000 nM. The matching figures for `CN1CCC[C@H]1COc1nc2c(c(N3CCN(C(=O)/C=C/CN4CCCCC4)[C@@H](CC#N)C3)n1)CCN(c1cccc3ccccc13)C2` [Example 236, 2-((S)-4-(2-(((S)-1-methylpyrrolidin-2-yl)methoxy)-7-(naphthalen-1-yl)-5,6,7,8-tetrahydropyrido[3,4-d]pyrimidin-4-yl)-1-(E-4-(piperidin-1-yl)but-2-enoyl)piperazin-2-yl)acetonitrile]: 3.33 to 16.7 h and 0.1 to 1000 nM. Turning to `CN1CCC[C@H]1COc1nc2c(c(N3CCN(C(=O)/C=C/C(F)F)[C@@H](CC#N)C3)n1)CCN(c1cccc3cccc(Cl)c13)C2` [Example 484, 2-[(2S)-4-[7-(8-chloro-1-naphthyl)-2-[[(2S)-1-methylpyrrolidin-2-yl]methoxy]-6,8-dihydro-5H-pyrido[3,4-d]pyrimidin-4-yl]-1-[(E)-4,4-difluorobut-2-enoyl]piperazin-2-yl]acetonitrile], in data set [1], the half-life at 5 µM was at most 3.33 h. In data set [2], the IC50 is 0.1 to 1000 nM. With `CN1CCC[C@H]1COc1nc2c(c(N3CCN(C(=O)/C=C/CF)[C@@H](CC#N)C3)n1)CCN(c1cccc3cccc(Cl)c13)C2` [Example 479, 2-[(2S)-4-[7-(8-chloro-1-naphthyl)-2-[[(2S)-1-methylpyrrolidin-2-yl]methoxy]-6,8-dihydro-5H-pyrido[3,4-d]pyrimidin-4-yl]-1-[(E)-4-fluorobut-2-enoyl]piperazin-2-yl]acetonitrile], the half-life at 5 µM in data set [1] was over 33.3 h. In addition, the IC50 in data set [2] was 0.1 to 1000 nM.

In the case of `CN1CCC[C@H]1COc1nc2c(c(N3CCN(C(=O)/C=C/CN4CCOCC4)[C@@H](CC#N)C3)n1)CCN(c1cccc3cccc(Cl)c13)C2` [Example 367, 2-[(2S)-4-[7-(8-chloro-1-naphthyl)-2-[[(2S)-1-methylpyrrolidin-2-yl]methoxy]-6,8-dihydro-5H-pyrido[3,4-d]pyrimidin-4-yl]-1-[(E)-4-morpholinobut-2-enoyl]piperazin-2-yl]acetonitrile], the half-life at 5 µM in data set [1] was 16.7 to 33.3 h. In addition, in data set [2], the IC50 was 0.1 to 1000 nM. For the compound `Cc1cccc2cccc(N3CCc4c(nc(OC[C@@H]5CCCN5C)nc4N4CCN(C(=O)/C=C/C(F)F)[C@@H](CC#N)C4)C3)c12` [Example 495, 2-((S)-1-((E)-4,4-difluorobut-2-enoyl)-4-(7-(8-methylnaphthalen-1-yl)-2-(((S)-1-methylpyrrolidin-2-yl)methoxy)-5,6,7,8-tetrahydropyrido[3,4-d]pyrimidin-4-yl)piperazin-2-yl)acetonitrile], the half-life at 5 µM in data set [1] was in the range of 3.33 to 16.7 h. For the same compound, the IC50 in data set [2] fell in the range of 0.1 to 1000 nM.

As to `Cc1cccc2cccc(N3CCc4c(nc(OC[C@H]5CCCN5C)nc4N4CCN(C(=O)/C=C/CO)[C@@H](CC#N)C4)C3)c12` [Example 517, 2-((S)-1-((E)-4-hydroxybut-2-enoyl)-4-(7-(8-methylnaphthalen-1-yl)-2-(((R)-1-methylpyrrolidin-2-yl)methoxy)-5,6,7,8-tetrahydropyrido[3,4-d]pyrimidin-4-yl)piperazin-2-yl)acetonitrile], in data set [1], the half-life at 5 µM lay in the range of 16.7 to 33.3 h. For the same compound, in data set [2], the IC50 lay in the range of 0.1 to 1000 nM. The matching figures for `C=C(OC)C(=O)N1CCN(c2nc(OC[C@@H]3CCCN3C)nc3c2CCN(c2cccc4cccc(C)c24)C3)C[C@@H]1CC#N` [Example 512, 2-[(2S)-1-(2-methoxyprop-2-enoyl)-4-[7-(8-methyl-1-naphthyl)-2-[[(2S)-1-methylpyrrolidin-2-yl]methoxy]-6,8-dihydro-5H-pyrido[3,4-d]pyrimidin-4-yl]piperazin-2-yl]acetonitrile]: over 33.3 h and over 1000 nM. Take `C=C(F)C(=O)N1CCN(c2nc(OC[C@@H]3CCCN3C)nc3c2CCN(c2cccc4cccc(C)c24)C3)C[C@@H]1CC#N` [Example 507]: the half-life at 5 µM in data set [1] was over 33.3 h. In data set [2], the IC50 was 0.1 to 1000 nM.

Take `CN1CCC[C@H]1COc1nc2c(c(N3CCN(C(=O)/C=C/CO)[C@@H](CC#N)C3)n1)CCN(c1cccc3cccc(Cl)c13)C2` [Example 513, 2-[(2S)-4-[7-(8-chloro-1-naphthyl)-2-[[(2S)-1-methylpyrrolidin-2-yl]methoxy]-6,8-dihydro-5H-pyrido[3,4-d]pyrimidin-4-yl]-1-[(E)-4-hydroxybut-2-enoyl]piperazin-2-yl]acetonitrile]: in data set [1], the half-life at 5 µM was 16.7 to 33.3 h. In addition, the IC50 in data set [2] is 0.1 to 1000 nM. The matching figures for `C=C(OC)C(=O)N1CCN(c2nc(OC[C@@H]3CCCN3C)nc3c2CCN(c2cccc4cccc(Cl)c24)C3)C[C@@H]1CC#N` [Example 514, 2-[(2S)-4-[7-(8-chloro-1-naphthyl)-2-[[(2S)-1-methylpyrrolidin-2-yl]methoxy]-6,8-dihydro-5H-pyrido[3,4-d]pyrimidin-4-yl]-1-(2-methoxyprop-2-enoyl)piperazin-2-yl] acetonitrile]: over 33.3 h and over 1000 nM. With `C=C(F)C(=O)N1CCN(c2nc(OC[C@H]3CCCN3C)nc3c2CCN(c2cccc4cccc(Cl)c24)C3)C[C@@H]1CC#N` [Example 557, 2-[(2S)-4-[7-(8-Chloro-1-naphthyl)-2-[[(2R)-1-methylpyrrolidin-2-yl]methoxy]-6,8-dihydro-5H-pyrido[3,4-d]pyrimidin-4-yl]-1-(2-fluoroprop-2-enoyl)piperazin-2-yl]acetonitrile], the half-life at 5 µM in data set [1] was over 33.3 h. With `COC/C=C/C(=O)N1CCN(c2nc(OC[C@H]3C[C@@H](OC)CN3C)nc3c2CCN(c2cccc4cccc(C)c24)C3)C[C@@H]1CC#N` [Example 552, 2-[(2S)-1-[(E)-4-methoxybut-2-enoyl]-4-[2-[[(2R,4R)-4-methoxy-1-methyl-pyrrolidin-2-yl]methoxy]-7-(8-methyl-1-naphthyl)-6,8-dihydro-5H-pyrido[3,4-d]pyrimidin-4-yl]piperazin-2-yl]acetonitrile], in data set [1], the half-life at 5 µM was over 33.3 h.
